This note sets out measurements from the supplement of paper PMC6045584.

Compound in this experiment: COc1cccc2c1C(=O)c1c(O)c3c(c(O)c1C2=O)C[C@@](O)(C(=O)CO)C[C@@H]3O[C@H]1C[C@H](N)[C@H](O)[C@H](C)O1 [DOXORUBICIN]
The experiment is described as follows: area under dose-response curve of surviving fraction (unscaled, Aref=0) (surviving fraction x log10(nM)); higher = more resistant. Conditions: exposure time: 5 days; dose range 0.5-1000 nM. In outline: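 Tumour cell lines in 384-well plates were exposed for five days to eight inhibitor concentrations from 0.5 to 1000 nM. Viability was read by CellTiter-Glo luminescence, normalised to DMSO-only wells, in three screens per line. Dose-response survival curves were fitted to surviving fractions by 3-parameter logistic regression in the drc R package. Area under the curve is the unscaled activity area (Aref = 0) over log10 dose.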

On to G292 BONE, for which the “area under dose-response curve” value came out at 1.77.

Consider HCC70 BREAST, for which the “area under dose-response curve” value is 2.04.

For the test system HS578T BREAST, the “area under dose-response curve” value came to 1.93.

In the case of HCC38 BREAST, the “area under dose-response curve” value came out at 1.77.

On to HMLE3 BREAST, for which the “area under dose-response curve” value stood at 1.36.
